Calls of active or inactive are those of the source. The rule behind the calls is not given here.
Legend:
BV-2 [1] = test: Antineuroinflammatory activity in LPS-induced mouse BV-2 cells assessed as decrease in IL-6 protein level pretreated for 4 hrs followed by LPS stimulation for 24 hrs by ELISA; type: functional, cell-based; details: dose 2.5-10 µM, time 28.0 hrs
BV-2 [2] = test: Antineuroinflammatory activity in LPS-induced mouse BV-2 cells assessed as downregulation of NF-kappaB p65 protein expression in nucleus at 5 to 10 uM pretreated for 4 hrs followed by LPS stimulation and measured after 24 hrs by Western blot analysis; type: functional, cell-based; details: dose 5-10 µM, time 28.0 hrs
BV-2 [3] = test: Antineuroinflammatory activity in LPS-induced mouse BV-2 cells assessed as decrease in TNFalpha protein level pretreated for 4 hrs followed by LPS stimulation for 24 hrs by ELISA; type: functional, cell-based; details: dose 2.5-10 µM, time 28.0 hrs
[4] = molecular target: Transcription factor p65 (Mus musculus) (UniProt Q04207); test: Inhibition of NF-kappaB p65 translocation from cytosol to nucleus in LPS-induced mouse BV-2 cells at 2.5 to 10 uM pretreated for 4 hrs followed by LPS stimulation and measured after 24 hrs by immunofluorescence analysis; type: cell-based; details: dose 2.5-10 µM, time 28.0 hrs
BV-2 [5] = test: Antineuroinflammatory activity in LPS-induced mouse BV-2 cells assessed as downregulation of IKK protein level in nucleus at 5 to 10 uM pretreated for 4 hrs followed by LPS stimulation and measured after 24 hrs by Western blot analysis; type: functional, cell-based; details: dose 5-10 µM, time 28.0 hrs
BV-2 [6] = test: Antineuroinflammatory activity in LPS-induced mouse BV-2 cells assessed as decrease in IL-1beta protein level pretreated for 4 hrs followed by LPS stimulation for 24 hrs by ELISA; type: functional, cell-based; details: dose 2.5-10 µM, time 28.0 hrs
BV-2 [7] = test: Antineuroinflammatory activity in LPS-induced mouse BV-2 cells assessed as decrease in TNFalpha mRNA level preincubated for 4 hrs followed by LPS stimulation and measured after 6 hrs by RT-PCR method; type: functional, cell-based; details: dose 2.5-10 µM, time 10.0 hrs
BV-2 [8] = test: Antineuroinflammatory activity in LPS-induced mouse BV-2 cells assessed as upregulation of IkappaB protein level in nucleus at 5 to 10 uM pretreated for 4 hrs followed by LPS stimulation and measured after 24 hrs by Western blot analysis; type: functional, cell-based; details: dose 5-10 µM, time 28.0 hrs
BV-2 [9] = test: Antineuroinflammatory activity in LPS-induced mouse BV-2 cells assessed as decrease in IL-6 mRNA level preincubated for 4 hrs followed by LPS stimulation and measured after 6 hrs by RT-PCR method; type: functional, cell-based; details: dose 2.5-10 µM, time 10.0 hrs
BV-2 [10] = test: Anti-neuroinflammatory activity in LPS-induced mouse BV-2 cells assessed as inhibition of NO production pretreated for 4 hrs followed by LPS stimulation for 24 hrs by griess reagent based assay; type: functional, cell-based
[11] = molecular target: Transcription factor p65 (Mus musculus) (UniProt Q04207); test: Inhibition of NF-kappaB p65 translocation from cytosol to nucleus in LPS-induced mouse BV-2 cells at 5 to 10 uM pretreated for 4 hrs followed by LPS stimulation and measured after 24 hrs by Western blot analysis; type: cell-based; details: dose 5-10 µM, time 28.0 hrs
BV-2 [12] = test: Effect on NF-kbeta p65 total protein level in mouse BV-2 cells at 5 to 10 uM pretreated for 4 hrs followed by LPS stimulation and measured after 24 hrs by Western blot analysis; type: functional, cell-based; details: dose 5-10 µM, time 28.0 hrs
[13] = Cytotoxicity against mouse BV-2 cells incubated for 24 hrs by MTT assay; type: toxicity, cell-based
BV-2 [14] = test: Antineuroinflammatory activity in LPS-induced mouse BV-2 cells assessed as decrease in IL-1beta mRNA level preincubated for 4 hrs followed by LPS stimulation and measured after 6 hrs by RT-PCR method; type: functional, cell-based; details: dose 2.5-10 µM, time 10.0 hrs

Transcription factor p65 (Mus musculus), sequence (Q04207 whole entry): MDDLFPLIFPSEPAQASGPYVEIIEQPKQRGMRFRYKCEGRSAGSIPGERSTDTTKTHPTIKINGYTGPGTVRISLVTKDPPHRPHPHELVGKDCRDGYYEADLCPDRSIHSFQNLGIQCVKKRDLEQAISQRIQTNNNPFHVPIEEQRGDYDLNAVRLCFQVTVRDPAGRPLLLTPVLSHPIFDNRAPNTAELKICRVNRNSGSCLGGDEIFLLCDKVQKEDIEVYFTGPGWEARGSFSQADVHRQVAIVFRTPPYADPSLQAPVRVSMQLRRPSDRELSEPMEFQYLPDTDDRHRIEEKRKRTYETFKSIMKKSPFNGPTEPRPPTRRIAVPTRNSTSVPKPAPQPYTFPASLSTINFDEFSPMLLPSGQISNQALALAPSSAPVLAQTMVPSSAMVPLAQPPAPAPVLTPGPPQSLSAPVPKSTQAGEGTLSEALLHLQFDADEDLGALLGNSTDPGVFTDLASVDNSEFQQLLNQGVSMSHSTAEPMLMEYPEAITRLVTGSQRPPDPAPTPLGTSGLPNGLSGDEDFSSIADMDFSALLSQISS

IC50 (BV-2 [10]) [µM] | Compound | CC50 at 24 h [13] [µM] | further results
2 | CC(=O)/C=C/C/C(C)=C/CC[C@]1(C)CCc2cc(O)cc(C)c2O1 | > 50 | Activity (BV-2 [1]): Dose-Dependent Effect; Activity (BV-2 [2]): Active; Activity (BV-2 [3]): Dose-Dependent Effect; inhibition [4]: Active; Activity (BV-2 [5]): Active; Activity (BV-2 [6]): Dose-Dependent Effect; Activity (BV-2 [7]): Dose-Dependent Effect; Activity (BV-2 [8]): Active; Activity (BV-2 [9]): Dose-Dependent Effect; inhibition [11]: Active; Activity (BV-2 [12]): inactive; Activity (BV-2 [14]): Dose-Dependent Effect
> 30 | CC(C)=CC(=O)C(=O)/C(C)=C/CC/C(C)=C/CC[C@]1(C)CCc2cc(O)cc(C)c2O1 | > 50 | 
19 | C=C(CC/C=C(\C)[C@H](O)[C@@H](O)C=C(C)C)C(=O)CC[C@]1(C)CCc2cc(O)cc(C)c2O1 | > 50 | 
> 30 | CC(C)=CC(=O)C/C(C)=C/CC/C(C)=C/CC[C@]1(C)CCc2cc(O)cc(C)c2O1 | > 50 | 
8 | C/C(=C\CC[C@]1(C)CCc2cc(O)cc(C)c2O1)CC/C=C(\C)C(=O)C(=O)CC(C)C | > 50 | 
6 | CC(C)=CC(O)C(=O)/C(C)=C/[C@H](O)C/C(C)=C/CC[C@]1(C)CCc2cc(O)cc(C)c2O1 (some centres not stated) | > 50 | 
25 | CC(C)=C[C@H](O)[C@@H](O)/C(C)=C/CC/C(C)=C/CC[C@]1(C)CCc2cc(O)c(C)c(C)c2O1 | > 50 | 
5 | CC(C)=CC(CO)/C(=C/CC/C(C)=C/CC[C@]1(C)CCc2cc(O)cc(C)c2O1)CO (some centres not stated) | > 50 | 
13 | C/C(=C\CC[C@]1(C)CCc2cc(O)cc(C)c2O1)CC/C=C(\C)C(=O)/C=C/C(C)(C)O | > 50 | 

Compound | IC50 (BV-2 [10]) [µM] | CC50 at 24 h [13] [µM] | further results
C/C(=C\CC[C@]1(C)CCc2cc(O)cc(C)c2O1)CC/C=C(\C)C(=O)/C=C/C(C)(C)OO | 29 | > 50 | 
